The values below come from patent publication US20240216410A1, “METHODS AND COMPOSITIONS FOR TREATING CANCER THERAPY-INDUCED NEUTROPENIC FEVER AND/OR GVHD” (BOARD OF REGENTS, THE UNIVERSITY OF TEXAS SYSTEM, priority 2021, published 2024).

Series [1] deals with intestinal microbiome. As to the kind of experiment: allo-HSCT patients who underwent intestinal microbiome profiling (meropenem-treated vs untreated). Format: in vivo, human. The method, then:
Next, the effects of meropenem on the composition of the colonic microbiota of transplanted patients and mice were investigated. Fecal specimens were collected from HSCT patients transplanted from 2014 to 2019 and 44 patients were identified who were treated with allo-HSCT following conditioning with fludarabine and busulfan.
Fecal samples collected at baseline following hospital admission around day −7 as well as on day 14 following allo-HSCT were examined (FIG. 15A). […] A paired differential abundance analysis was then performed, asking which bacterial genera were the most changed from baseline in the two subgroups of patients.
Retrospective study design.
Sequencing of 16S rRNA gene amplicons. Fecal samples from patients and mice were weighed before DNA isolation. In brief, genomic DNA was isolated using the QIAAMP® DNA mini kit (51306, QIAGEN®) according to the manufacturer's protocol that was modified to include an intensive bead-beating lysis step. The V4 region of 16S rRNA gene was amplified by PCR from 100 ng of each of extracted and purified genomic DNA using 515 forward and 806 reverse primer pairs (59). The quality and quantity of the barcoded amplicons were assessed on an Agilent 4200 TapeStation system (Agilent) and QUBIT™ Fluorometer (THERMO FISHER […]™), and libraries were prepared after pooling at equimolar ratios. The final libraries were purified using […]® gel extraction kit (28706X4, QIAGEN®) and sequenced with a 2×250 base pair paired-end protocol on the […]® MISEQ™ platform.
Microbiome data analysis. Sequencing data from paired-end reads were de-multiplexed using QIIME 2 (60). Merging of paired-end reads, dereplicating, and length filtering was performed using VSEARCH 2.17.1 (61). Following de-noising and chimera calling using the unoise3 command (62), unique sequences were taxonomically classified with mothur (63) using the Silva database (64) version 138. Weighted UniFrac distances (65) were determined using QIIME 2, visualized using principal coordinate analysis, and evaluated for statistical significance using permutational multivariate analysis of variance (PERMANOVA) testing. For differential abundance analysis, abundances of sequences belonging to taxonomical groups were included for analysis using the Mann-Whitney U test and adjusted for multiple comparisons using the method of Benjamini and Hochberg. Paired samples were analyzed using the Wilcoxon signed rank test with adjustment for multiple comparisons.

Series [2] in a line: Murine GVHD model: fecal SCFAs by IC-MS. The note with it: day 18; meropenem-treated allo-HSCT mice. Format: in vivo. An excerpt: In some cases, meropenem-induced intestinal dysbiosis contributes to aggravated GVHD via loss of beneficial commensal bacteria. In some embodiments, meropenem-treated allogeneic mice show a loss of Clostridia abundance and a reduction in SCFA levels, including butyrate. On day 7, or 4 days following the start of meropenem treatment, Clostridia were depleted in meropenem-treated mice and remained so at 6 days after stopping 5 meropenem (FIG. 20A).
Short Chain Fatty Acids profiling by ion chromatography-mass spectrometry (IC-MS). To determine the relative abundance of short chain fatty acids in mouse feces samples, extracts were prepared and analyzed by ultra-high resolution mass spectrometry (HRMS). Fecal pellets were homogenized with a […]® Tissue Homogenizer. Metabolites were extracted using 1 mL ice-cold 0.1% Ammonium hydroxide in 80/20 (v/v) methanol/water. Extracts were centrifuged at 17,000 g for 5 min at 4° C., and supernatants were transferred to clean tubes, followed by evaporation to dryness under nitrogen. Dried extracts were reconstituted in deionized water, and 5 μL was injected for analysis by IC-MS. IC mobile phase A (MPA; weak) was water, and mobile phase B (MPB; strong) was water containing 100 mM KOH. A THERMO […]™ DIONEX™ ICS-5000+ system included a THERMO FISHER […]™ IONPAC™ AS11 column ([…], 250×2 mm) with column compartment kept at 30° C. […]

The format of series [3] is in vivo, mice. The method, then:
The mucus layer provides a critical contribution to the intestinal barrier by excluding bacteria from the intestinal lumen adjacent to the intestinal epithelium. […] Translocating bacteria included Enterococcus faecalis, Enterococcus gallinarum, Lactobacillus johnsonii, and BT (FIGS. 17D-17E).
Immunostaining and fluorescence in situ hybridization. […] Paraffin-embedded sections were dewaxed and hydrated. Sections were incubated with 1 μg Alexa Fluor 594-conjugated EUB338 (5′-[…]-3′; SEQ ID NO:1) for detection of all bacteria in 200 μL of hybridization buffer (750 mM NaCl, 100 mM Tris-HCl (pH 7.4), 5 mM EDTA, 0.01% BSA, 10% dextran sulfate) at 40° C. for 16 hours. Sections were rinsed in wash buffer (50 mM NaCl, 4 mM Tris-HCl (pH 7.4), 0.02 mM EDTA), washed at 45° ° C. for 20 min, stained with anti-Muc2 antibody [C3] (GTX100664, GeneTex) and counterstained with DAPI (Vector Laboratories). Photographs of sections were obtained using a fluorescent microscope (Nikon NIS Elements, Advanced Research version 4.20).
Microbiologic analysis of bacterial translocation. Mesenteric lymph nodes (MLNs) were harvested from mice and homogenized in PBS and cultured anaerobically on BHI plates containing yeast extract and 5% sterilized rumen fluid (THERMO FISHER […]™)) and Columbia blood agar plates (BD) for 4 days at 37° ° C. Colony-forming units (CFUs) were counted and adjusted per organ. […]

The mark [4] stands for this setting: 44 microbiome-profiled patients, meropenem days −10 to 14.

SMILES strings stand for the structures. “Also recorded” adds a separate entry of the source.

Regarding `C[C@@H](O)[C@H]1C(=O)N2C(C(=O)O)=C(S[C@@H]3CN[C@H](C(=O)N(C)C)C3)[C@H](C)[C@H]12` [meropenem], in series [1] (setting [4]), the “Acute GVHD Grade 0, number of patients” value is recorded as 7; the “Acute GVHD Grade 0, percentage of patients” value was “(38%)”; the “Acute GVHD Grade I, number of patients” value was determined as 0; the “Acute GVHD Grade I, percentage of patients” value is recorded as “(0%)”. Also, in series [1] (setting [4]), the “Acute GVHD Grade II, number of patients” value was determined as 7; the “Acute GVHD Grade II, percentage of patients” value is “(38%)”; the “Acute GVHD Grade III-IV, number of patients” value was found to be 4; the “Acute GVHD Grade III-IV, percentage of patients” value was “(22%)”. Also, in series [1] (fecal samples pre-HSCT vs day 14), the “bacterial genera most changed from baseline (paired differential abundance)” value is on record as “significant expansion of bacteria from the genus Bacteroides”. Moreover, the “fecal levels of SCFAs” value in series [2] was “significantly decreased; also recorded: reduced fecal levels of SCFAs, with particularly dramatic reductions in butyrate and valerate”. For the same compound, the “bacterial loads cultivated from MLNs” value in series [3] (day 18) was “higher bacterial loads”. For the same compound, in series [3] (mice with GVHD), the “bacteria in mucus layer and lamina propria (16S FISH)” value was “dissemination of bacteria into the mucus layer and lamina propria of the colon”.
